These results are taken from PubChem BioAssay AID623934 (Southern Research Specialized Biocontainment Screening …, 2012).

Molecules are shown by their SMILES. The source made the active and inactive calls. How the calls were made is not given here.

Test system in the first experiment: not listed separately
The experiment can be described thus: West Nile virus antiviral cytopathic protection, dose response, cell-based, EC_3 (AID 623934). As to conditions: West Nile virus infected cells, antiviral cytopathic protection; at 50 µM (top of the series).
Consider `Cc1cc(-n2c(SCC(=O)c3nc(-c4ccccc4)cs3)nc3ccccc3c2=O)ccc1Cl`, for which the inhibition – broadly, the percentage by which the read-out fell short of the control – is 3.94% (inactive).

Staying with this experiment, now noted: West Nile virus infected cells, antiviral cytopathic protection; at 100 µM (top of the series).
For the molecule `N#Cc1ccc(-n2c(SCC(=O)Nc3nc(-c4ccccc4)cs3)nc3ccccc3c2=O)cc1`, the inhibition is 6.44% (inactive). Turning to `O=C(CSc1nc2ccccc2c(=O)n1-c1cc(F)cc(F)c1)Nc1nc(-c2ccccc2)cs1`, the inhibition was 3.67% (inactive). As to `N#Cc1ccc(-n2c(SCC(=O)Nc3nc(-c4ccccc4)cs3)nc3ccccc3c2=O)cc1F`, the inhibition was 5.78% (inactive).

On to `O=C(CSc1nc2c(Cl)cccc2c(=O)n1-c1cc(Cl)cc(Cl)c1)Nc1nc(-c2ccccc2)cs1`, for which the inhibition is 5.19% (inactive). On the same count and under the same terms, the same measure for `O=C(CSc1nc2ccccc2c(=O)n1-c1ccc(Cl)c(F)c1)c1nc(-c2ccccc2)cs1`: 4.16% (inactive); for `N#Cc1ccc(-n2c(SCC(=O)Nc3ccc4c(c3)CCC4)nc3ccccc3c2=O)cc1F`: 2.03% (inactive). The same measure, in the same setting: the same measure for `O=C(CSc1nc2cccc(F)c2c(=O)n1-c1cc(Br)c(F)cn1)Nc1ccc2c(c1)CCC2`: 3.79% (inactive). On the same count and under the same terms, the same measure for `O=C(CSc1nc2ccccc2c(=O)n1-c1ccc(Cl)c(Cl)c1)Nc1ccc2c(c1)CCC2`: 24.8% (inactive). Turning to `O=C(CSc1nc2cccc(F)c2c(=O)n1-c1ccc(Cl)c(Cl)c1)Nc1ccc2c(c1)CCC2`, the inhibition was 3.14% (inactive). Still for that read-out and setting: the same measure for `N#Cc1ccc(-n2c(SCC(=O)c3nc(-c4ccccc4)cs3)nc3ccccc3c2=O)cc1`: 3.25% (inactive). As for `Cc1cc(-n2c(SCC(=O)Nc3nc(-c4ccccc4)cs3)nc3ccccc3c2=O)ccc1Cl`, the inhibition is 5.12% (inactive).

As to `O=C(CSc1nc2c(Cl)cccc2c(=O)n1-c1cc(Cl)cc(Cl)c1)Nc1ccc2c(c1)CCC2`, the inhibition is 5.62% (inactive). Take `O=C(CSc1nc2ccccc2c(=O)n1-c1cc(F)cc(F)c1)c1nc(-c2ccccc2)cs1`: the inhibition is 6.41% (inactive). The same measure, in the same setting: the same measure for `O=C(CSc1nc2ccccc2c(=O)n1-c1ccc(Cl)c(Cl)c1)Nc1nc(-c2ccccc2)cs1`: 4.05% (inactive); for `O=C(CSc1nc2c(F)cccc2c(=O)n1-c1cc(Cl)cc(Cl)c1)Nc1nc(-c2ccccc2)cs1`: 3.92% (inactive); for `O=C(CSc1nc2cccc(F)c2c(=O)n1-c1ccc(Cl)c(Cl)c1)Nc1nc(-c2ccccc2)cs1`: 3.12% (inactive). As for `O=C(CSc1nc2ccccc2c(=O)n1-c1c(Cl)cccc1Cl)Nc1nc(-c2ccccc2)cs1`, the inhibition was 1.54% (inactive). As for `N#Cc1ccc(-n2c(SCC(=O)Nc3ccc4c(c3)CCC4)nc3ccccc3c2=O)cc1`, the inhibition was 8.15% (inactive). For the molecule `O=C(CSc1nc2ccccc2c(=O)n1-c1ccccn1)Nc1nc(-c2ccccc2)cs1`, the inhibition was 3.87% (inactive). As for `Cc1cc(-n2c(SCC(=O)Nc3nc(-c4ccccc4)cs3)nc3ccccc3c2=O)ccc1F`, the inhibition is 4.72% (inactive). With `O=C(CSc1nc2ccccc2c(=O)n1-c1ccc(Cl)c(Br)c1)Nc1nc(-c2ccccc2)cs1`, the inhibition is 4.48% (inactive). On to `O=C(CSc1nc2ccccc2c(=O)n1-c1c(Cl)cccc1Cl)c1nc(-c2ccccc2)cs1`, for which the inhibition is 3.02% (inactive). Consider `O=C(CSc1nc2ccccc2c(=O)n1-c1ccc(Cl)c(F)c1)Nc1ccc2c(c1)CCC2`, for which the inhibition was 7.41% (inactive).

As for `Cc1ccc(-n2c(SCC(=O)c3nc(-c4ccccc4)cs3)nc3ccccc3c2=O)cc1Br`, the inhibition was 4.12% (inactive).

In the case of `O=C(CSc1nc2c(F)cccc2c(=O)n1-c1ccccc1)Nc1nc(-c2ccccc2)cs1`, the inhibition was 3.49% (inactive). Turning to `O=C(CSc1nc2ccccc2c(=O)n1-c1ccccn1)Nc1ccc2c(c1)CCC2`, the inhibition is 2.47% (inactive). For the molecule `O=C(CSc1nc2c(F)cccc2c(=O)n1-c1ccc(Cl)c(Cl)c1)Nc1nc(-c2ccccc2)cs1`, the inhibition is 5.8% (inactive). On the same count and under the same terms, the same measure for `Cc1cc(-n2c(SCC(=O)c3nc(-c4ccccc4)cs3)nc3ccccc3c2=O)ccc1F`: 3.75% (inactive).

The test system of the next experiment is West Nile virus infected cells, antiviral cytopathic protection. The description is as above.
Settings: not given
Turning to `O=C(CSc1nc2ccccc2c(=O)n1-c1ccc(Cl)c(Br)c1)Nc1ccc2c(c1)CCC2`, the EC50 (commonly the concentration giving half of the maximal effect) is 13.7 µM. Take `Cc1cc(-n2c(SCC(=O)Nc3ccc4c(c3)CCC4)nc3ccccc3c2=O)ccc1F`: the EC50 was 6.66 µM. The same measure, in the same setting: the same measure for `O=C(CSc1nc2ccccc2c(=O)n1-c1c(Cl)cccc1Cl)Nc1ccc2c(c1)CCC2`: 13 µM; for `O=C(CSc1nc2c(F)cccc2c(=O)n1-c1ccc(Cl)c(Cl)c1)Nc1ccc2c(c1)CCC2`: 9.43 µM. As to `O=C(CSc1nc2c(F)cccc2c(=O)n1-c1cc(Cl)cc(Cl)c1)Nc1ccc2c(c1)CCC2`, the EC50 is 11.4 µM. For the molecule `O=C(CSc1nc2ccccc2c(=O)n1-c1ccccc1)Nc1ccc2c(c1)CCC2`, the EC50 was 26.8 µM.

As for `O=C(CSc1nc2cccc(F)c2c(=O)n1-c1ccc(Cl)c(Cl)c1)Nc1ccc2c(c1)CCC2`, the EC50 is 15.4 µM. Same read-out and setting: the same measure for `Cc1ccc(-n2c(SCC(=O)Nc3ccc4c(c3)CCC4)nc3ccccc3c2=O)cc1Br`: 8.28 µM; for `O=C(CSc1nc2ccccc2c(=O)n1-c1cc(Cl)c(F)cn1)Nc1ccc2c(c1)CCC2`: 24.4 µM; for `O=C(CSc1nc2ccccc2c(=O)n1-c1cc(F)c(F)cn1)Nc1ccc2c(c1)CCC2`: 18.5 µM. Turning to `O=C(CSc1nc2ccccc2c(=O)n1-c1cc(F)cc(F)c1)Nc1ccc2c(c1)CCC2`, the EC50 is 11.4 µM. Same read-out and setting: the same measure for `Cc1cc(-n2c(SCC(=O)Nc3ccc4c(c3)CCC4)nc3ccccc3c2=O)ccc1Cl`: 4.22 µM; for `O=C(CSc1nc2c(F)cccc2c(=O)n1-c1ccccc1)Nc1ccc2c(c1)CCC2`: 17.3 µM.
